# Results: patent publication US20250205204A1, “Transcription Factor Brn2 Inhibitory Compounds for Use as Therapeutics” (The University of British Columbia, priority 2021, published 2025)
# Read-outs that look alike come from different tables or passages of the source.
# Columns and labels:
# [1] = Metabolic stability in liver microsomes (MLM); format: in vitro ADME, mice; conditions: 0.25 mg/mL protein; for half-life at 1 μM: mouse, liver microsomes, pH 7.4, 1 μM compound, read-out: T1/2 in mins (MLM); for Met Stab % (60 mins) MLM: percent remaining at 60 min, 1 μM compound, 1 mM NADPH
# Description: Preparation of Potassium Phosphate Buffer, 50 mM (pH 7.4)
# Potassium phosphate buffer (Kphos) was prepared by adding 0.647 g potassium phosphate monobasic (KH2PO4) and 3.527 g potassium phosphate dibasic (KH2PO4) to 400 mL of Milli-Q™ water. pH of the buffer was adjusted to 7.4 and volume was made up to 500 mL.
# Preparation of Microsomes
# Stock solutions of BRN2 inhibitors were prepared in DMSO at a concentration of 1 mM
# Preparation of NADPH Solution
# • Total Incubation volume: 100 μL • Compound concentration: 1 μM • Protein Concentration: 0.25 mg/mL • NADPH: 1 mM • Final DMSO contain: 0.1% • Number of replicates: 2 • Time points: 0, 5, 15, 30 and 60 min
# From the above mix, 70 μL was added to individual wells of 96 well reaction plates and pre-incubated in a 37° C. water bath for 5 min. […] Reactions without NADPH and buffer controls (minus NADPH) at 0 min and 60 min were also incubated to rule out non-NADPH metabolism or chemical instability in the incubation buffer. All reactions were terminated using 100 μL of ice-cold acetonitrile containing internal standard at 0, 5, 15, 30 and 60 min.
# Samples were monitored for parent compounds disappearance in MRM mode using LC-MS/MS.
# The percent remaining of test compounds and positive control in each sample was determined by considering peak area ratio in the 0 minute sample as 100%. The Half-life of compounds in microsomes is calculated by formula: […]
# In vitro intrinsic clearance (CL'int) (units in mL/min/kg) was calculated using the formula.
# [formula] • For liver microsomes, scaling factor used was 45 mg microsomal protein per gm liver. • * Indicates liver weight (gm) which varies species wise. For mice the liver weights are 90 gm.
# 42D^ENZR cells = test: Cell proliferation, BRN2 expressing 42D cells (crystal violet); format: cell-based; conditions: for Growth Specificity: 42D (express BRN2) versus 16D (no BRN2) cells, result in words
# Description: Step 3: Cell Proliferation
# Plate 42DE^NZR (˜7000 cells per well) and 16D^CRPC (˜5000 cells per well) cells in 96 well plate with a volume of 100 μL per well. • 2. Next day 1 mL aliquots of media are combined with 3× the desired concentration of compounds. The aliquots are vortexed and 50 μL of each 3× concentration is added to the 100 μL of media in each well to give the ix desired concentration.
# The following are the desired concentrations:
# Approximately 72 hours later, 17 μL of 10% Glutaraldehyde is added to each well and plates are placed on a shaker for 20-30 minutes. • 4. Media is washed off the fixed cells by slow submersion in a container of water. Then the water is removed by tapping the plate upside down. • 5. 75 μL of Crystal Violet™ solution is added into the 96 well plates and placed on a shaker for ˜30 minutes. • 6. Media is washed off the fixed cells by repeated slow submersion in a container of water and the plates are allowed to dry over-night. • 7. Next day, 75 μL of Sorensen Solution is accurately pipetted into each well. The plates placed on a shaker for ˜30 minutes. • 8. Absorbance is measured in the plate at 590 nm.
# There is a distinction in TABLES 1 and 2 difference between “Active” and “Specific” or “Specificity”.
# [2] = read-out: IC50 (effective on both 42D and 16D cells)
half-life at 1 μM [1],Met Stab % (60 mins) MLM [1],Compound,Growth Specificity (42D^ENZR cells; about 72 hours),IC50 (42D^ENZR cells; [2]),"IC50 (42D^ENZR cells; 42D cells, proliferation, about 72 hours, read-out: 42D IC50)"
34 min,28%,"CC1(C)/C(=N/Nc2nc3ccccc3s2)C(=O)c2ccccc21 [7-67, (Z)-2-(2-(benzo[d]thiazol-2-yl)hydrazineylidene)-3,3-dimethyl-2,3-dihydro-1H-inden-1-one]",not specific,–,–
15 min,6%,COc1ccc2c(c1)C/C(=N/Nc1nc3ccccc3s1)C2=O [7-99],Potent but effective on both 42D and 16D cells,–,–
16 min,8%,"O=C1/C(=N\Nc2nc3ccccc3o2)Cc2ccccc21 [7-77, (Z)-2-(2-(benzo[d]oxazol-2-yl)hydrazineylidene)-2,3-dihydro-1H-inden-1-one]",Not specific,–,–
> 60 min,94%,O=C(O)c1cnc(N/N=C2/Cc3ccccc3C2=O)s1 [7-88],Not specific,–,–
13 min,5%,Cc1ccc2nc(N/N=C3/CCc4ccccc43)sc2c1 [7-46],Not effective on 42D or 16D cells,–,–
> 60 min,98%,O=C(O)c1csc(N/N=C2/Cc3ccccc3C2=O)n1 [7-87],Not specific,–,–
6 min,2%,Cn1c(N/N=C2/Cc3ccccc3C2=O)nc2ccccc21 [7-79],Specific but weak,–,> 15 µM
10 min,1%,"O=C1/C(=N\Nc2nc3ccccc3[nH]2)Cc2ccccc21 [7-76, (Z)-2-(2-(1H-benzo[d]imidazol-2-yl)hydrazineylidene)-2,3-dihydro-1H-inden-1-one]",Not effective on 42D or 16D cells,–,–
> 60 min,82%,O=C1/C(=N\Nc2nc3ccccc3s2)Cc2ccc(C(F)(F)F)cc21 [7-107],Low potency,–,–
19 min,18%,O=C(NNc1nc2ccccc2s1)C1Cc2ccccc2C1=O (centres unmarked) [7-86],Not specific,–,–
11 min,2%,O=C1/C(=N\Nc2nc3ccccc3s2)CCc2ccccc21 [7-89],Not specific,–,–
10 min,4%,"O=C1/C(=N\Nc2ccc3ccccc3n2)Cc2ccccc21 [7-80, (Z)-2-(2-(quinolin-2-yl) hydrazineylidene)-2,3-dihydro-1H-inden-1-one]",Specific to 42D,–,–
7 min,0%,Fc1ccc2nc(N/N=C3/CCc4ccccc43)sc2c1 [7-47],Not effective on 42D or 16D cells,–,–
< 5 min,0%,"COC(=O)C1/C(=N/Nc2nc3ccccc3s2)Cc2ccccc21 (centres unmarked) [7-68, methyl (E)-2-(2-(benzo[d]thiazol-2-yl)hydrazineylidene)-2,3-dihydro-1H-indene-1-carboxylate]",not specific,–,–
10 min,1%,CC1(C)Cc2ccccc2/C1=N\Nc1nc2ccccc2s1 [7-61],effective on both 42D and 16D cells,10 µM,–
17 min,16%,"O=C1/C(=N\Nc2cc3ccccc3s2)Cc2ccccc21 [7-83, (Z)-2-(2-(benzo[b]thiophen-2-yl)hydrazineylidene)-2,3-dihydro-1H-inden-1-one]",Not effective on 42D or 16D cells,–,–
22 min,14%,c1ccc2c(c1)CC/C2=N/Nc1ccc2ccccc2c1 [7-48],Not effective on 42D or 16D cells,–,–

# The remaining lines, values behind:
Compound,half-life at 1 μM [1],Met Stab % (60 mins) MLM [1],Growth Specificity (42D^ENZR cells; about 72 hours),IC50 (42D^ENZR cells; [2]),"IC50 (42D^ENZR cells; 42D cells, proliferation, about 72 hours, read-out: 42D IC50)"
Fc1ccc2c(c1)/C(=N\Nc1nc3ccccc3s1)CC2 [7-56],8 min,0%,effective on both 42D and 16D cells,10 µM,–
c1ccc2c(c1)CC/C2=N/Nc1nccs1 [7-64],8 min,0%,Not effective on 42D or 16D cells,–,–
c1ccc(N/N=C2\CCc3ccccc32)nc1 [7-60],8 min,0%,Not effective on 42D or 16D cells,–,–
Clc1ccc2c(c1)/C(=N\Nc1nc3ccccc3s1)CC2 [7-38],8 min,1%,Not effective on 42D or 16D cells,–,–
O=C(Nc1nc2ccccc2s1)C1CCc2ccccc21 (centres unmarked) [7-51],12 min,1%,Not effective on 42D or 16D cells,–,–
N#Cc1ccc2nc(N/N=C3\CCc4ccccc43)sc2c1 [7-33],47 min,35%,Non-specific. Effective on both 42D and 16D cells,–,–
O=c1c(=NNc2nc3ccccc3s2)c(=O)c2ccccc12 [7-85],32 min,25%,Not specific,–,–
c1ccc2c(c1)CN(Nc1nc3ccccc3s1)C2 [7-49],14 min,1%,Not effective on 42D or 16D cells,–,–
c1ccc2c(c1)CCC2c1cnn(-c2nc3ccccc3s2)c1 (centres unmarked) [7-43],10 min,1%,Not effective on 42D or 16D cells,–,–
Cc1nc(N/N=C2/CCc3ccccc32)sc1C [7-63],11 min,1%,Not effective on 42D or 16D cells,–,–
c1ccc2c(c1)CCC2c1ccc(-c2nc3ccccc3s2)o1 (centres unmarked) [7-44],10 min,1%,Not effective on 42D or 16D cells,–,–
Fc1cc(F)c2nc(N/N=C3\CCc4ccccc43)sc2c1 [7-39],17 min,7%,Not effective on 42D or 16D cells,–,–
O=C1/C(=N\Nc2nc3ccccc3s2)CC2C=CC=CC12 (centres unmarked) [7-41],33 min,28%,Not effective on 42D or 16D cells,–,–
Fc1cc(Br)c2c(c1)/C(=N\Nc1ccc3ccccc3n1)CC2 [7-45],21 min,14%,Not effective on 42D or 16D cells,–,–
C/C(=N\Nc1nc2ccccc2s1)c1ccccc1C [7-54],–,0%,Not effective on 42D or 16D cells,–,–
